Results on three compounds are retold here after patent publication US7943600B2, “Antimicrobial combination therapy” (priority 2004, dated 2011).

Format in all cases: cell-based, E. coli
The test system of one assay is GM7330 fpg::amp. Kind of assay: Survival curves after cisplatin treatment. As to conditions: presence or absence of ampicillin in growth medium. The protocol:
(§1) MacConkey agar and LB broth were purchased from Difco. LB broth contained 10 g tryptone, 5 g yeast extract, and 10 g NaCl per 1 L. All antibiotics and cisplatin (cis-diammine-dichloro-platinum(II), or CDDP) were purchased from Sigma-Aldrich. Antibiotics were used at the following final concentrations: 15 μg/ml tetracycline (Tc), 100 μg/ml ampicillin, 50 μg/ml kanamycin, 100 μg/ml streptomycin, 30 μg/ml nalidixic acid and 20 μg/ml chloramphenicol. Cisplatin solutions were prepared by dissolution in phosphate buffered saline (PBS) at 37° C. for one hour with rotation, filtering the solution through a 0.2 μm Acrodisc filter, and determining the concentration by UV absorbance at A301 using a Beckmann DU-65 spectrophotometer. Appropriate doses of cisplatin were then prepared by dilution in PBS.
(§2) Cells were grown overnight from single colonies in LB broth. The next morning, saturated overnight cultures were diluted 1:100 and grown for two hours to mid-log phase (cell density approximately 3×10^8 cells/ml). At this time, the cells were spun down, resuspended in M9 minimal salts, and treated with various concentrations of cisplatin at 37° C. for 1 hour. Exposure to cisplatin was stopped by dilution of the cells 1:100 in M9 salts. Appropriate serial dilutions were prepared for each dose and plated on LB plates or LB/Tet plates. Colonies were counted the next day after incubation at 37° C. Survival was calculated as a percentage of cells forming colonies in treated populations relative to untreated.

For another assay, the system named is CC104 mutY::cam. Kind of assay: Survival curves after cisplatin treatment. The following applies: presence or absence of chloramphenicol in growth medium. Here is the method: as §1, §2
Another assay deals with AB1157 mutS::tet. Put plainly: Survival curves after cisplatin treatment. The protocol:
as §1, §2

A further assay has as its system GM7330 fpg::tet. Put plainly: Survival curves after cisplatin treatment. The protocol: as §1, §2
Another assay deals with CC104 mutY::tet. Put plainly: Survival curves after cisplatin treatment. Here is the method: as §1, §2
The next assay deals with MG1655/F′Tn10. Put plainly: Survival curves (colony formation) after cisplatin treatment. Here is the method: Strain GM4292 was constructed by mating exponentially growing XL1-Blue (Stratagene) with MG1655 (both at 1-2×10^8/ml at a 1:1 ratio) for 60 min and plating dilutions of the mixture on MacConkey agar-tetracycline plates. A red tetracycline-resistant, nalidixic acid-sensitive colony was selected, purified and designated GM4292. Strain GM4293 was constructed by introducing F′42 (F′lac^+) from AB 1874 into KM81 by conjugation as described above and selecting for Lac^+ Str^R colonies. A purified Lac^+ Str^R recombinant overnight culture was diluted and plated on MacConkey agar-kanamycin and following incubation overnight at 37° C., white colonies were selected. White colonies can arise either by gene conversion, where the lac^+ allele on the F′42 plasmid is converted to lacZ::Kan, or by loss of the F′lac^+. The white colonies were tested for their ability to transfer kanamycin-resistance at high frequency to MG1655, indicating retention of the F′ plasmid. One of these MG1655 recipients was designated GM4293.
as §1
Cells were grown overnight from single colonies in LB broth. The next morning, saturated overnight cultures were diluted 1:100 and grown for two hours to mid-log phase (cell density approximately 3×10^8 cells/ml). […] Exposure to cisplatin was stopped by dilution of the cells 1:100 in M9 salts. Appropriate serial dilutions were prepared for each dose and plated on LB plates or LB/Tet plates. Colonies were counted the next day after incubation at 37° C. Survival was calculated as a percentage of cells forming colonies in treated populations relative to untreated.

The subject of another assay is CC104/pBR322. Kind of assay: Survival curves after cisplatin treatment. As to conditions: grown with tetracycline prior to cisplatin treatment. Here is the method: (§3) Strains carrying the pBR322 plasmid were created using a standard transformation by electroporation protocol. Briefly, cells were grown to mid-log phase, spun down, and washed 3 times in ice-cold sterile water. Cells were then resuspended in the final volume of 100 μl of ice-cold sterile water, and 10 μg pBR322 (New England BioLabs) was added. The BTX electroporation system, ElectroCell Manipulator 600, was used to deliver the pulse. After the pulse, cells were immediately resuspended in 1 ml of LB broth. Appropriate dilutions of cells were prepared in M9 minimal salts, plated on LB-ampicillin plates, and allowed to form colonies overnight.
as §1, §2

In the next assay the test system is AB1157/pBR322. Kind of assay: Survival curves after cisplatin treatment. The following applies: grown with tetracycline prior to cisplatin treatment. Here is the method: as §3, §1, §2
The subject of the next assay is MG1655/pBR322. Kind of assay: Survival curves after cisplatin treatment. The protocol: as §3, §1, §2
Where [1] appears, read: tetracycline absent from growth medium.
Setting [2] is: grown without tetracycline, treated with cisplatin alone.
Where [3] appears, read: grown without tetracycline, treated with cisplatin in the presence of tetracycline.
[4] abbreviates: pre-treated and co-treated with tetracycline vs pre-treated only, cisplatin.

For `CC1(C)S[C@@H]2[C@H](NC(=O)[C@H](N)c3ccccc3)C(=O)N2[C@H]1C(=O)O` [ampicillin], the “effect of antibiotic in growth medium on survival upon cisplatin treatment” value in the assay with GM7330 fpg::amp is on record as “did not produce the same degree of sensitization to cisplatin”.

Take `O=C(N[C@H](CO)[C@H](O)c1ccc([N+](=O)[O-])cc1)C(Cl)Cl` [chloramphenicol]: in the assay with CC104 mutY::cam, the “effect of antibiotic in growth medium on survival upon cisplatin treatment” value was “did not produce the same degree of sensitization to cisplatin”.

For `N.N.[Cl][Pt][Cl]` [cisplatin, cis-diammine-dichloro-platinum(II)], the “survival upon treatment with cisplatin” value in the assay on AB1157 mutS::tet (grown with tetracycline) was “dramatically decreased”; in the assay on AB1157 mutS::tet (setting [1]), “not different from respective wild-types”; in the assay on GM7330 fpg::tet (grown with tetracycline), “dramatically decreased”; in the assay on GM7330 fpg::tet (setting [1]), “not different from respective wild-types”; in the assay on CC104 mutY::tet (grown with tetracycline), “dramatically decreased”; in the assay on CC104 mutY::tet (setting [1]), “not different from respective wild-types”. For the same compound, the sensitivity to cisplatin entry in the assay with MG1655/F′Tn10 (4 hours, 10-fold lower cisplatin doses, co-treated with tetracycline only) was “more sensitive to cisplatin than wild-type”; in the assay on MG1655/F′Tn10 (4 hours, 10-fold lower cisplatin doses, pre-treated with tetracycline and co-treated with cisplatin and tetracycline), “the most sensitive to cisplatin treatment”; in the assay on MG1655/F′Tn10 (4 hours, 10-fold lower cisplatin doses, pre-treated with tetracycline only), “more sensitive to cisplatin than wild-type”; in the assay with MG1655/F′Tn10 (setting [2]), “equally sensitive to cisplatin as MG1655 cells not carrying any tet genes”; in the assay on MG1655/pBR322 (setting [2]), “equally sensitive to cisplatin as MG1655 cells not carrying any tet genes”. Also, the survival result is listed as “not different from survival of wild-type cells” in the assay with MG1655/F′Tn10 (4 hours, 10-fold lower cisplatin doses, neither pre-treated nor co-treated with tetracycline); “their survival decreased” in the assay with MG1655/F′Tn10 (setting [3]); “their survival decreased” in the assay with MG1655/pBR322 (setting [3]). For the same compound, the “survival upon exposure to cisplatin” value in the assay on MG1655/F′Tn10 (grown without tetracycline, cisplatin 1 hour) is “not different from that of MG1655 wild-type cells”. Also, the “additional decrease in survival” value with MG1655/F′Tn10 (setting [4]) and in the assay with MG1655/pBR322 (setting [4]) was 100 fold in each case. Also, the “survival upon subsequent treatment with cisplatin” value in the assay with MG1655/F′Tn10 (tetracycline 15 μg/ml in growth medium of overnight and log phase cultures, cisplatin 1 hour) is recorded as “dramatic decrease in survival”. Also, in the assay with MG1655/F′Tn10 (tetracycline-resistant bacteria grown in tetracycline, then cisplatin in the presence of tetracycline, vs wild-type or resistant bacteria not exposed to tetracycline), the “killed more effectively than wild-type bacteria” value is recorded as “about 10^5 fold”. Further, the sensitization to cisplatin entry in the assay with CC104/pBR322, with AB1157/pBR322 and with MG1655/pBR322 (grown with tetracycline prior to cisplatin treatment) was “did not produce similar sensitization to cisplatin” each time.
